Entries after “also recorded” stand apart in the source; their conditions may differ. Where no end group is shown, it is not given here.
Assays:
E. coli O157:H7 = conditions: cited from earlier work
Procedure: Salt ions in serum are important factors affecting the antibacterial activity of AMPs in vivo because they can bind to the negatively charged groups of lipopolysaccharide (LPS), a monolayer molecule on the outer membrane of Gram-negative bacteria ([29]). […] But in the presence of physiological concentrations of CaCl2, the MIC of OaBac5mini increased four-fold and attained 100 μg/ml (Table 2). It has been reported that the ...

IPEC-J2 cells = assay type: cell-based, porcine
Procedure: The cells were maintained in CO2 incubator (Galaxy R, RS Biotech, Scotland) with 5% CO2 at 37°C. Real time cellular analysis (RTCA) was used to evaluate the proliferation and viability of IPEC-J2 cells. […] Real time cellular analysis was monitored using xCELLigence RTCA DP system (xCELLigence, ACEA biosciences, USA) for 100 h at 15 min intervals. The cell index was normalized by RTCA software 2.0 (xCELLigence, ACEA biosciences, USA).

trypsin = test: Digestive enzyme sensitivity (inhibition zone assay); conditions: 37°C, 3 h, 50 μg/ml peptide, inhibition zone assay against E. coli ATCC 25922, repeated three times
Procedure: (§1) The sensitivities of OaBac5mini to different pH, temperature, digestive enzymes, and repeated freeze-thawing conditions were determined using the inhibition zone assay as previously described ([23]). For pH sensitivity, OaBac5mini was diluted with each solution whose pH was individually adjusted to 2, 3, 4, 5, 6, 7, 8, 9, 10, 11 with HCl or NaOH, and incubated for 2 h, followed by adjusting the pH to 7 to end the reaction. For temperature sensitivity, the diluted peptide was incubated at 30, 40, 50, 60, 70, 80, 90, and 100°C for 30 min. To determine the digestive enzymes sensitivity, OaBac5mini was incubated with 100 μg/ml pepsin (in pH 2 sterile water, sigma, USA), 5–100 μg/ml trypsin (in pH 6.8 KH2PO4 buffer, sigma, USA) and 100 μg/ml protease K (Solarbio, China) at 37°C for 3 h, respectively. To end the reaction after incubation, the pepsin buffer was adjusted to pH 8, the trypsin solution and protease K solution were incubated at 95°C for 10 min. For repeated freeze-thawing sensitivity, OaBac5mini was frozen and then thawed at room temperature 0–12 times. All the final concentrations of OaBac5mini in sensitivity tests were 50 μg/ml. All experiments were repeated three times.

E. coli ATCC 25922 [1] = test: microbe, parasite or virus in culture; conditions: ATCC 25922
Procedure: (§2) MICs of OaBac5mini, amoxicillin, kanamycin, florfenicol and tetracycline were determined using the two-fold broth microdilution method according to the Clinical and Laboratory Standards Institute (CLSI) guidance ([21]). MIC values of the tested antibacterial agents were determined on three independent occasions. Escherichia coli ATCC 25922 was used as the quality control in all the susceptibility tests.

S. aureus ATCC 25923 = test: microbe, parasite or virus in culture; conditions: ATCC 25923
Procedure: as §2

E. coli ATCC 25922 ΔsbmA = conditions: two-fold broth microdilution, CLSI; three independent occasions; sbmA deletion mutant
Procedure: The method described by Datsenko and Wanner was used for chromosomal gene deletion ([20]). […] The PCR fragment (1,567 bp) was purified, digested with DpnI, repurified and transferred into E. coli ATCC 25922 by electroporation, in which the Red recombinase expression plasmid pKD46 was previously transformed and induced by L-arabinose. Transformants were selected on Luria-Bertani (LB) agar containing 50 μg/ml of kanamycin at 37°C. The inserted sequence was amplified from the kanamycin-resistant strains by using the primers SBMF: 5′-[…]-3′ and SBMR: 5′-[…]-3′ which is located outside of inactivated gene. The length of the PCR product of sbmA using the primers set SBMF and SBMR in E. coli ATCC 25922 is 1,404 bp. When sbmA is successfully inactivated, the PCR product (2,198 bp) was amplified and sequenced for the verification of the gene deletion.
as §2

E. coli ATCC 25922 [2] = test: Sensitivity to pH, temperature and repeated freeze-thawing (inhibition zone assay); assay type: physicochemical, Escherichia coli; conditions: 50 μg/ml, inhibition zone assay against E. coli ATCC 25922, repeated three times
Procedure: as §1

E. coli ATCC 25922 [3] = test: Integrity of the inner membrane (DiSC3(5)); assay type: cell-based, Escherichia coli; conditions: 25, 50, 100 and 200 μg/ml; 1 μM DiSC3(5); within 30 min; P < 0.05; n = 3
Procedure: If the membrane is depolarized or disrupted, DiSC3(5) is released into the aqueous medium and leads to increased fluorescence. The DiSC3(5) assay was conducted following the instruction of Sautrey et al. ([26]) with minor modifications. […] Fluorescence units were investigated immediately using INFINITE 200 PRO (Infinite® 2000, TECAN, Austria) at the excitation wavelength of 620 nm and emission wavelength of 670 nm for 30 min at 1 min intervals. Triple experiments were conducted with three individual clones of E. coli ATCC 25922.

E. coli W13 = test: microbe, parasite or virus in culture; conditions: W13
Source text: (§3) The strains of E. coli ATCC 25922 and S. aureus ATCC 25923 were purchased from the American Type Culture Collection (ATCC, Manassas, VA, United States). The strains of E. coli W13, E. coli IF4, E. coli 2, and E. coli 17 were individually isolated from the livers of diseased chickens infected by E. coli. The strains of S. aureus B5, S. aureus B9, S. aureus B54, and S. aureus B63 were individually isolated from the milk of cows with mastitis. These clinical isolates were all identified by the VITEK-32 system (bioMérieux, France) and PCR amplification sequencing.
as §2

S. aureus B9 = test: microbe, parasite or virus in culture; conditions: B9
Source text: as §3, §2

S. aureus B54 = test: microbe, parasite or virus in culture; conditions: B54
Source text: as §3, §2

E. coli 2 = test: microbe, parasite or virus in culture; conditions: 2
Source text: as §3, §2

S. aureus B63 = test: microbe, parasite or virus in culture; conditions: B63
Source text: as §3, §2

E. coli IF4 = test: microbe, parasite or virus in culture; conditions: IF4
Source text: as §3, §2

S. aureus B5 = test: microbe, parasite or virus in culture; conditions: B5
Source text: as §3, §2

E. coli 17 = test: microbe, parasite or virus in culture; conditions: 17
Source text: as §3, §2

In the case of RFRPPIRRPPIRPPFRPPFRPPVR [OaBac5mini], the “MIC against E. coli O157:H7 in the presence of 100 mM NaCl” value (E. coli O157:H7) is given as “about 30 μg/ml”, the “Cell indexes of IPEC-J2 cells at 400 μg/ml compared to the control group” value (IPEC-J2 cells) is given as “didn't change significantly” and the “Cell indexes of treated IPEC-J2 cells compared with the control group” value (IPEC-J2 cells) is given as “significant increase”. The “Antibacterial activity after treatment with trypsin 20 to 100 μg/ml” value (trypsin; trypsin 20 to 100 μg/ml in pH 6.8 KH2PO4 buffer) was “completely lost activity”, the “Antibacterial activity after treatment with trypsin at low concentrations” value (trypsin; trypsin ≤ 10 μg/ml (< 20 μg/mL) in pH 6.8 KH2PO4 buffer) was “stable antibacterial activity; also recorded: no significant effect” and the “MIC against E. coli ATCC 25922” value (E. coli ATCC 25922 [1]) was 25 µg/mL. The “MIC against S. aureus ATCC 25923” value (S. aureus ATCC 25923) was over 250 µg/mL, the “MIC against E. coli ATCC 25922 ΔsbmA” value (E. coli ATCC 25922 ΔsbmA) was 100 µg/mL and the “Antibacterial activity after treatment at high temperature” value (E. coli ATCC 25922 [2]; 30-100°C for 30 min) was “stable antibacterial activity”. For the same sequence, the “Antibacterial activity after repeated freeze-thawing” value (E. coli ATCC 25922 [2]; frozen and thawed at room temperature 0-12 times) was “stable antibacterial activity”, the “Antibacterial activity after treatment at different pH” value (E. coli ATCC 25922 [2]; pH 2-11 (HCl or NaOH), 2 h, then adjusted to pH 7) was “stable antibacterial activity; also recorded: not significantly affected” and the “Average fluorescence intensity of DiSC3(5) (inner membrane integrity)” value (E. coli ATCC 25922 [3]) was “significantly increased”. For the same sequence, the “MIC against E. coli W13” value (E. coli W13) was 3.26 µg/mL, the “MIC against S. aureus B9” value (S. aureus B9) was 250 µg/mL and the “MIC against S. aureus B54” value (S. aureus B54) was 250 µg/mL. For the same sequence, the “MIC against E. coli 2” value (E. coli 2) was 1.95 µg/mL, the “MIC against S. aureus B63” value (S. aureus B63) was 208.33 µg/mL and the “MIC against E. coli IF4” value (E. coli IF4) was 2.60 µg/mL. The “MIC against S. aureus B5” value (S. aureus B5) was over 250 µg/mL and the “MIC against E. coli 17” value (E. coli 17) was 3.26 µg/mL.

Reference: publication PMC9995905, “Characteristics of antimicrobial peptide OaBac5mini and its bactericidal mechanism against Escherichia coli” (Frontiers in Veterinary Science, 2023)
